The values that follow come from US7390834B2, “Cyanophenoxy carboxylic acid compounds and compositions for delivering active agents” (Emisphere Technologies, Inc., priority 2000, dated 2008).

The structures appear in SMILES notation.

Data set [1] in a line: Oral and intracolonic delivery of heparin in rats (APTT). It counts as in vivo, Sprague-Dawley rats. The settings on record: Heparin Dose 1 mg/kg, maximum of group means, n=5. Here is the method:
Oral gavage (PO) and intracolonic (IC) dosing solutions containing a delivery agent compound and heparin sodium USP in 25% aqueous propylene glycol were prepared. Either the sodium salt of the delivery agent compound was used or the free acid was converted to the sodium salt with one equivalent of sodium hydroxide. Typically, the delivery agent compound and heparin (about 166-182 IU/mg) were mixed by vortex as dry powders. This dry mixture was dissolved in 25% v/v aqueous propylene glycol, vortexed and placed in a sonicator (about 37° C.). The pH was adjusted to about 7 (6.5 to 8.5) with aqueous NaOH (2N). The dosing solution was sonicated to produce a clear solution. The final volume was adjusted to 3.0 mL. The final delivery agent compound dose, heparin dose and volume dose amounts are listed below in Table 2.
The typical dosing and sampling protocols were as follows. Male Sprague-Dawley rats weighing between 275-350 g were fasted for 24 hours and were anesthetized with ketamine hydrochloride (88 mg/kg) intramuscularly immediately prior to dosing. A dosing group of five rats was administered one of the dosing solutions. For oral gavage (PO) dosing, an 11 cm Rusch 8 French catheter was adapted to a 1 mL syringe with a pipette tip. The syringe was filled with dosing solution by drawing the solution through the catheter, which was then wiped dry. The catheter was placed down the esophagus leaving 1 cm of tubing past the rat's incisors. Solution was administered by pressing the syringe plunger. For intracolonic (IC) dosing, a 7.5 cm 8 fr Rusch catheter was adapted to a 1 ml syringe with a pipette tip. The dosing catheter was inserted into the colon through the anus until the tube was no longer visible. The dosing solution was expressed slowly into the colon.
Citrated blood samples were collected by cardiac puncture following the administration of ketamine (88 mg/kg), typically at time—0.25, 0.5, 1.0 and 1.5 hours. Heparin activity was determined by utilizing the activated partial thromboplastin time (APTT) according to the method of Henry, J. B., Clinical Diagnosis and Management by Laboratory Methods, Philadelphia, Pa., W. B. Saunders (1979). Previous studied indicated baseline values of about 20 sec. Results from the five rats in each group were averaged for each time point. The maximum is reported below in Table 2.

Where [2] appears, read: Oral, as printed: Volume Dose 300 ml/kg, Compound Dose 100 mg/kg.

Regarding `N#Cc1ccccc1OCCCCCC(=O)O` (hydrate or solvate) [Compound 4, 6-(2-cyanophenoxy)hexanoic acid], the melting point (in general, the temperature of the solid-liquid transition) fell in the range of 77 to 80 °C.

Compound `N#Cc1ccccc1OCCCC(=O)O` [Compound 2, 4-(2-cyanophenoxy)butanoic acid] had a melting point of 127 to 128 °C.

In the case of `N#Cc1ccccc1OCCCCC(=O)O` [Compound 3, 5-(2-cyanophenoxy) pentanoic acid], the melting point lay in the range of 87 to 89 °C. In data set [1] (IC, as printed: Volume Dose 200 ml/kg, Compound Dose 25 mg/kg), the “Mean Peak APTT (sec) ± SD” value came out at 16.23 ± 1.23 s. Moreover, the “Mean Peak APTT (sec) ± SD” value in data set [1] (setting [2]) is 203.59 ± 72.97 s.

With `N#Cc1ccccc1OCCCCCCCC(=O)O` [Compound 5, 8-(2-cyanophenoxy) octanoic acid], the melting point was in the range of 83 to 85 °C. Further, in data set [1] (IC, as printed: Volume Dose 50 ml/kg, Compound Dose 25 mg/kg), the “Mean Peak APTT (sec) ± SD” value came to 80.22 ± 45.70 s. In addition, in data set [1] (setting [2]), the “Mean Peak APTT (sec) ± SD” value stood at 176.25 ± 175.01 s.

`N#Cc1ccccc1OCCCCCCCCCC(=O)O` [Compound 6, 10-(2-cyanophenoxy)decanoic acid] gave a melting point of 82 to 84 °C.

As for `N#Cc1cc(Cl)ccc1OCCCCC(=O)O` [Compound 7, 5-(4-chloro-2-cyanophenoxy)pentanoic acid], the melting point was 87 to 90 °C.

On to `N#Cc1ccc(OCCCCCCCC(=O)O)cc1` [Compound 8, 8-(4-cyanophenoxy)octanoic acid], for which the melting point lay in the range of 137 to 140 °C.

With `N#Cc1ccccc1OCc1ccc(C(=O)O)cc1` [Compound 9, 4-(2-cyanophenoxymethyl)benzoic acid], the melting point lay in the range of 199 to 203 °C.
